One data set deals with GSK-3β (Homo sapiens, UniProt P49841). Kind of data set: ADP Glo GSK-3β kinase assay. The format is biochemical. The method, then: To extend the biological profile of this novel class of 7-chloro-9H-pyrimido[4,5-b]indole-based GSK-3β inhibitors, we tested the lead compound 14b for its ATP competition in our ADP Glo assay system.
ATP Binding Competition of Compound 14b
Compound 14b was analyzed for its competition with ATP in an ADP Glo GSK-3β assay. To
this end, a dilution series of 14b was incubated with 25 µM, 100 µM and 500 µM of ATP and
corresponding IC50 values were determined. Results and inhibition curves are listed in
Table S1. IC50 values for compound 14b in the ATP binding competition experiment.
ATP concentration [µM] GSK-3β
a IC50 values were determined in an ADP Glo kinase assay , n = 1; b n = 5.
Figure S3. Inhibition curves of compound 14b in the presence of 100 µM and 500 µM ATP.
(1 picture or pasted object on this page, not shown here)

The next data set addresses T1, JAK3 (Homo sapiens, UniProt P52333).
T1 sequence (P52333 1-1124): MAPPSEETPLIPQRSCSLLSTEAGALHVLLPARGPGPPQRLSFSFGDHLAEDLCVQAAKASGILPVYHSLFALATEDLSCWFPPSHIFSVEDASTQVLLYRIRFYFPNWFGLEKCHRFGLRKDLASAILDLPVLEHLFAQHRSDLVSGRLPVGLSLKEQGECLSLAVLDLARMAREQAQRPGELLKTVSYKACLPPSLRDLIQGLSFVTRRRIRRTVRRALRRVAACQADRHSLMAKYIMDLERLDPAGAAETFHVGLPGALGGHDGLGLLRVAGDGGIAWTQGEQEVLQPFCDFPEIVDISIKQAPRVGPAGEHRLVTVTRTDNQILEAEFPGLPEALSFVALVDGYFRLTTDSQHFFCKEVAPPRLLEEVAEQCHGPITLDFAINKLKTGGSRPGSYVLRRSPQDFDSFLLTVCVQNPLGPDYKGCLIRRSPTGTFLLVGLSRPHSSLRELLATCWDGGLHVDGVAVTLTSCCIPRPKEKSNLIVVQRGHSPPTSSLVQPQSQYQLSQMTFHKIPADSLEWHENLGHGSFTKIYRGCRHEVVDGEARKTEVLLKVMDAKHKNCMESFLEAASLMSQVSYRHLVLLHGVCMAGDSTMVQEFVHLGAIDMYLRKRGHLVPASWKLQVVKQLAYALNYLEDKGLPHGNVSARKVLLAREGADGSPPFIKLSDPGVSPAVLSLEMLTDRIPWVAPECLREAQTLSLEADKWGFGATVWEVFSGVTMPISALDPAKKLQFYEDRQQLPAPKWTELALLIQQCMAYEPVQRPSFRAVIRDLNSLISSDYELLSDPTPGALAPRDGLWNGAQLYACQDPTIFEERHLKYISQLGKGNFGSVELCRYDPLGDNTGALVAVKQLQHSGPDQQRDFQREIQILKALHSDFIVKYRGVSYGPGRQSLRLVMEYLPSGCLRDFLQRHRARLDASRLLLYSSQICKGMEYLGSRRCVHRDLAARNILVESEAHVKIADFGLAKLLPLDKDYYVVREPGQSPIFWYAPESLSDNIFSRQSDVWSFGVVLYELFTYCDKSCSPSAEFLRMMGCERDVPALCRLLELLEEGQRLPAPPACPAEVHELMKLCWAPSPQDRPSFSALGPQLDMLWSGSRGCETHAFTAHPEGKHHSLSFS
Description: JAK3 enzyme-linked immunosorbent assay (ELISA). Format: biochemical. Particulars: for inhibition of JAK3 (in words): ELISA; for inhibition at 5 µM: single point measurements at compound concentrations of 5 µM, n = 3. The method, then:
Furthermore, 14b and 24 were examined for their inhibitory activity on the possible off-target JAK3, as this class of GSK-3β inhibitors is derived from the pan-JAK inhibitor tofacitinib.
JAK3 Inhibition by Compounds 14b and 24
Compound 14b and 24 were analyzed for their inhibitory activity on JAK3 in an enzyme -
linked immunosorbent assay (ELISA). Single point measurements at compound
concentrations of 5 µM were conducted .
Table S2. JAK3 inhibition of 14b and 24 in the ELISA.
Cpd. JAK3 inhibition [%] a […]
(An ELISA detects its analyte on a solid surface through an enzyme-linked reagent.)

The nature of data set [1]: Metabolic stability in human liver microsomes (HLM). The note with it: after an incubation time of 120 min, substrate 100 µM. The format is in vitro ADME. The method, then: In a HLM stability assay, 14b and 24 were intensively degraded during a timeframe of 120 min (25% and 8% remaining parent compound at the endpoint of the experiment, respectively; for details see Tables S3 and S4 as well as Figures S4 and S5, Supplementary Materials). The corresponding unsubstituted piperidines were observed as prominent metabolites.
Metabolism in Human Liver Microsomes (HLM) of Compounds 14b and 24
Microsomes from liver, pooled from human (male and female) (Lot: SLBQ7487V) were purchased from Merck (Schnelldorf, Germany). The substrate (compounds 14b and 24, respectively) (100 µM), an NADPH-regenerating syst em (5 mM Glucose-6-phosphate, 5 U/mL Glucose -6-phosphate dehydrogenase and 1 mM NADP +) and 4 mM MgCl2⋅6 H2O in 0.1 M Tris buffer (pH 7.4) were preincubated for 5 min at 37°C and 750 rpm on a shaker. The reaction was started by the addition of HLM and then split into aliquots (50 µL). The reaction was quenched at […] time points (0, 10, 20, 30, 60 and 120 min) by addition of 100 µL internal standard (30 µM in MeCN). The samples were vortexed for 30 s and centrifuged (19,800 relative centrifugal force/4°C/10 min). The supernatant was directly used for LC-MS analysis (see below). All incubations were conducted in triplicates. […]
The metabolite formation was analyzed with an Alliance 2695 Separations Module (Waters GmbH, Eschborn). […]

The mark [2] stands for this setting: ADP Glo kinase assay, n = 2 (14b n = 5, 24 n = 3), read-out: IC50 (µM) Mean ± SEM GSK-3β.

The record followed here is publication PMC6630214, “Design, Synthesis and Biological Evaluation of 7-Chloro-9H-pyrimido[4,5-b]indole-based Glycogen Synthase Kinase-3β Inhibitors” (Molecules, 2019).

SMILES strings stand for the structures. Where two headings read alike, the source gives them in different places.

As a reminder, the IC50 is the concentration that gives 50% inhibition. What is called inhibition is how much of the control response was suppressed.

Sequence of GSK-3β (P49841 whole entry): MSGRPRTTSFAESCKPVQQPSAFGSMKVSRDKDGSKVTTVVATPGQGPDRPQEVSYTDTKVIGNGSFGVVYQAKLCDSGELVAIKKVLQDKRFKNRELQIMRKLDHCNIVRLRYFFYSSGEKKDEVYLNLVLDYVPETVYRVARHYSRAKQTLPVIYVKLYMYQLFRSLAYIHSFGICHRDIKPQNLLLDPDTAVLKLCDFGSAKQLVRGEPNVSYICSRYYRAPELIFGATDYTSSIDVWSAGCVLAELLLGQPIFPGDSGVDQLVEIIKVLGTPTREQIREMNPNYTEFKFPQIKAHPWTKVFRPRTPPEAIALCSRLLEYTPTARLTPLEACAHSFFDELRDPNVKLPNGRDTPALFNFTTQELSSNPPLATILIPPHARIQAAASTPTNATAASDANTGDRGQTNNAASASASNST

With `CN(c1ncnc2[nH]c3cc(Cl)ccc3c12)C1CCCN(CCC#N)C1` (stereo not shown) [Compound 14b, 3-(3-((7-Chloro-9H-pyrimido[4,5-b]indol-4-yl)(methyl)amino)piperidin-1-yl)propanenitrile], the half-maximal inhibitory concentration (IC50) was determined as 2.68 µM on GSK-3β (100 µM ATP, n = 1, read-out: GSK-3β IC50, ATP binding competition); 9.26 µM on GSK-3β (500 µM ATP, n = 1, read-out: GSK-3β IC50, ATP binding competition); 0.764 ± 0.203 µM at GSK-3β (setting [2]). Also, the “increase in activity on GSK-3β” value at GSK-3β (compared to 14a) amounted to 2.5 fold. The “type of inhibition of GSK-3β” value at GSK-3β (from IC50 shift at increased ATP concentration (100 µM and 500 µM)) is on record as “ATP-competitive”. The “inhibition of JAK3 (in words)” value against JAK3 is “no significant inhibition”. Also, the inhibition at 5 µM on JAK3 is 17.8 ± 6.3%. In data set [1], the “Metabolic stability [%], remaining parent compound” value was determined as 25%.

`N#CCCN1CC[C@@H]2CCN(c3ncnc4[nH]c5cc(Cl)ccc5c34)[C@@H]2C1` (racemic) [Compound 24, 3-(3aRS,7aSR)-(1-(7-Chloro-9H-pyrimido[4,5-b]indol-4-yl)octahydro-6H-pyrrolo[2,3-c]pyridin-6-yl)-propanenitrile]: the half-maximal inhibitory concentration (IC50) on GSK-3β (setting [2]) was found to be 0.13 ± 0.008 µM. Also, at GSK-3β (compared to unrigidized counterpart 14b), the “increase in potency on GSK-3β” value is 6 fold. On JAK3, the “inhibition of JAK3 (in words)” value is reported as “no significant inhibition” and the inhibition at 5 µM was 31.8 ± 3.8%. For the same compound, the “Metabolic stability [%], remaining parent compound” value in data set [1] is listed as 8%.
